Molecules are shown by their SMILES. pIC50, pKi: −log10 of the molar value. Where a name gives a salt, the structure may show the parent alone. Read-outs that look alike come from different tables or passages of the source.

One series addresses Human α7 NAChR (Homo sapiens (Human), UniProt P36544). Put plainly: Electrophysiology screen at 1 μM in Xenopus laevis oocytes. It is filed as cell-based. To be noted: 1 μM test compound; Imax = maximal current produced by 3 mM ACh. The protocol:
Human α7 NAChR plasmid was prepared by GeneWiz from accession NM_000746.5. Human α7 NAChR mRNA was prepared by TriLink at a concentration near 1 μg/μL. The human α7 NAChR mRNA was diluted in sterile water to a working concentration near 10 ng/μL.
Oocytes were obtained from Xenopus laevis frogs and treated with collagenase by Ecocyte Bioscience. Oocytes were injected with the working concentration of α7 NAChR mRNA at a volume of 50 nL for a total of approximately 0.5 ng of α7 NAChR mRNA. Oocytes were maintained in Barth's solution at a temperature of 16° C. The Barth's solution was replaced daily.
Two-electrode voltage clamp recordings were made 3-14 days following mRNA injections at a holding voltage of −70 mV. The NAChR recordings were performed in Ca^++-free Ringer solution (115 mM NaCl, 2 mM KCl, 1.8 mM BaCl2, 5 mM HEPES; pH˜7.4) to limit Ca^++-activated chloride currents.
In all oocyte recordings, drug and wash solutions were applied using a custom-designed microcapillary “linear array” which allows rapid application of agonists. Currents were recorded on a PC-based computer (PClamp, Molecular Devices, Sunnyvale, Calif.). Responses were reported as (I/Imax), where I is the amount of current given by a selected concentration of drug and Imax is the amount of maximal current produced by a 3 mM solution of ACh.
Stocks of test compounds were prepared in DMSO. Test solutions in Ringer were prepared immediately before application of test compound (final DMSO concentration of 0.1%). The final concentration of test compound in the test solution was 1 μM. The test solution was perfused onto the oocyte until a peak current was recorded. There was approximately two minutes of wash time with only the Ringer solution between each application of agonist. Measurement of the test solution was repeated between 2 and 6 times with a two minute wash time between each application of test solution. An average of the currents for each test compound was used to define the response for the test compound.

The nature of a further series: Human plasma stability. Type of series: in vitro ADME. To be noted: plasma, 5 μM. In outline:
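Compound remaining was quantified by LC-MS/MS as peak-area ratio to internal standard relative to time 0, with half-lives from single-exponential fits. Protocol 1 incubated 1 μM in heparinized human plasma (pH 7.4, 37° C) to 120 min; protocol 2 used 5 μM, pH 7.4–8.0, 37° C, n=2, to 120 min.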

Series [1] can be described thus: Metabolic stability assay in rat liver microsomes (RLM). To be noted: 1 μM. It is filed as in vitro ADME. In short, it runs like this:
(§1)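 In Protocol 1, compound was 1 μM final with NADPH at 37 °C, sampled at 0–45 min. In Protocol 2, 1.5 μM compound with 0.75 mg/mL microsomes (pre-NADPH mix) in 0.1 M potassium phosphate, 1 mM EDTA, pH 7.4 was pre-incubated 10 min, then NADPH started the reaction. Both: LC-MS/MS % remaining versus time 0, half-life from single-phase exponential fit.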

The nature of series [2]: Metabolic stability assay in human liver microsomes (HLM). It is filed as in vitro ADME. To be noted: 1 μM. In short, it runs like this: as §1
On the technique in general: Liver microsomes are a subcellular fraction often used to study metabolism.

Series [3] addresses T1, rat brain nicotinic receptor (α7 NAChR) (Rattus norvegicus (Rat), UniProt Q05941). It is filed as binding.
The target of series [4] is T1, rat brain nicotinic receptor (α7 NAChR). It is filed as binding. To be noted: Protocol No. 2; [3H] α-Bungarotoxin 0.4 nM, rat brain P2 membrane.
[5] abbreviates: Protocol No. 1, rat liver microsomes.
Where [6] appears, read: Protocol No. 1, human liver microsomes.

T1 sequence (Q05941 23-502 limits assumed): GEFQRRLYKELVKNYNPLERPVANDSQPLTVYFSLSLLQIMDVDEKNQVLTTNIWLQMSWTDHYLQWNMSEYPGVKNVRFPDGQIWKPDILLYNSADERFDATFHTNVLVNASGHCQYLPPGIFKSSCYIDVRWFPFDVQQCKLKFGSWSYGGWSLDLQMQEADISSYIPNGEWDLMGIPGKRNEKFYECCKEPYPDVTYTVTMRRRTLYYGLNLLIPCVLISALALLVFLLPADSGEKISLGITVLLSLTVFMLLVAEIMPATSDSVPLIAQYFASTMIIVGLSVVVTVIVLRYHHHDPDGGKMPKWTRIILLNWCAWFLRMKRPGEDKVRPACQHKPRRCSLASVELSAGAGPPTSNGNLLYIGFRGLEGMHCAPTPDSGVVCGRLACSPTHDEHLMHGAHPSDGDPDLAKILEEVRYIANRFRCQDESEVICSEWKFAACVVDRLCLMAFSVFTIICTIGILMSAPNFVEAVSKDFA
Chain of Human α7 NAChR (P36544 23-502 limits assumed): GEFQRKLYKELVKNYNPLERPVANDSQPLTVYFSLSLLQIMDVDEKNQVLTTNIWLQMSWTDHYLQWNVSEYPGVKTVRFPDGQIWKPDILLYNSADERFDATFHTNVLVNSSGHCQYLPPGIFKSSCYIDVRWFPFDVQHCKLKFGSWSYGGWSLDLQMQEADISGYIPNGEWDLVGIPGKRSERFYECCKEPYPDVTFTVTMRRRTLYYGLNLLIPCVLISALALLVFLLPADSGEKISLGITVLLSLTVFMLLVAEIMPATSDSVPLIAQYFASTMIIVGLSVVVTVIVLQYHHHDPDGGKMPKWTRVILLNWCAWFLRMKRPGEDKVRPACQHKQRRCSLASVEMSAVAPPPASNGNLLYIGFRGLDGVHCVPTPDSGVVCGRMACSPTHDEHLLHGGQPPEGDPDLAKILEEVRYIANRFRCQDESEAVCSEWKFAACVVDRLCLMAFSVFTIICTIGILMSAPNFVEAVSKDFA

At Human α7 NAChR, `Cc1cc2[nH]cc(C(=O)OCC34CCN(CC3)CC4)c2cc1C.Cl` [Compound 73, Quinuclidin-4-ylmethyl 5,6-dimethyl-1H-indole-3-carboxylate hydrochloride] showed an I/Imax of 0.367. For the same compound, the “% Remaining @ 2 h” value in the series “Human plasma stability” (Protocol No. 2, 37° C.) is on record as 41.93%. This compound also returned an RLM in series [1] (setting [5]) of 766.779 mL/min/kg. The HLM in series [2] (setting [6]) amounted to 2.825 mL/min/kg. Besides, in series [3], the negative-log IC50 (pIC50) – broadly, the negative decadic logarithm of the IC50, by convention in mol/L – was 6.77 and the negative-log Ki (pKi) (as a rule, the negative decadic logarithm of the Ki, by convention in mol/L) is 6.84.
In the case of `O=C(OCC12CCN(CC1)CC2)c1c[nH]c2ccc(F)c(Cl)c12` [Compound 62, quinuclidin-4-ylmethyl 4-chloro-5-fluoro-1H-indole-3-carboxylate hydrochloride], the I/Imax at Human α7 NAChR worked out at 0.171. The “% Remaining @ 2 h” value in “Human plasma stability” (human, 2 h) was determined as 74.02%. This compound displayed an RLM in series [1] (rat, microsomes) of 498.991 mL/min/kg. Further, in series [2] (human, microsomes), the HLM is listed as 7.061 mL/min/kg. In series [3], this compound gave a negative-log IC50 (pIC50) of 6.95 and a pKi of 7.01.
Take `COCCOc1ccc2[nH]cc(C(=O)OCC34CCN(CC3)CC4)c2c1C` [Compound 91, quinuclidin-4-ylmethyl 5-(2-methoxyethoxy)-4-methyl-1H-indole-3-carboxylate]: the I/Imax at Human α7 NAChR is 0.205. In “Human plasma stability” (human, 2 h), the “% Remaining @ 2 h” value is on record as 81.12%. Besides, the RLM in series [1] (rat, microsomes) worked out at 235.4 mL/min/kg. Further, the HLM in series [2] (human, microsomes) came to 6.14 mL/min/kg. For the same compound, in series [4], the pIC50 is 6.66 and the pKi is 6.07.
The compound `COCCCOc1ccc2[nH]cc(C(=O)OCC34CCN(CC3)CC4)c2c1C` [Compound 92, quinuclidin-4-ylmethyl 5-(3-methoxypropoxy)-4-methyl-1H-indole-3-carboxylate] showed an I/Imax at Human α7 NAChR of 0.266. Also, in “Human plasma stability” (human, 2 h), the “% Remaining @ 2 h” value is reported as 64.72%. This compound also registered an RLM in series [1] (rat, microsomes) of 149.88 mL/min/kg. This compound returned an HLM in series [2] (human, microsomes) of 10.37 mL/min/kg. In series [4], this compound gave a pIC50 of 7.12 and a pKi of 6.87.
For the compound `Cc1ccc2[nH]cc(C(=O)OCC34CCN(CC3)CC4)c2c1Cl` [Compound 63, quinuclidin-4-ylmethyl 4-chloro-5-methyl-1H-indole-3-carboxylate], on Human α7 NAChR, the I/Imax is 0.118. In addition, the “% Remaining @ 2 h” value in the series “Human plasma stability” (human, 2 h) worked out at 74.47%. This compound gave an RLM in series [1] (rat, microsomes) of 1465.43 mL/min/kg. The HLM in series [2] (human, microsomes) was 0.4623 mL/min/kg. Besides, in series [3], the negative logarithm of the IC50 (pIC50) is 6.93 and the negative-log Ki (pKi) was 7.00.
At Human α7 NAChR, `Cl.O=C(OCC12CCN(CC1)CC2)c1c[nH]c2cccc(C(F)(F)F)c12` [Compound 80, Quinuclidin-4-ylmethyl 4-(trifluoromethyl)-1H-indole-3-carboxylate hydrochloride] displayed an I/Imax of 0.032. Besides, the “% Remaining @ 2 h” value in the series “Human plasma stability” (Protocol No. 2, 37° C.) is 81.31%. The compound also came in with an RLM in series [1] (setting [5]) of 1443.16 mL/min/kg. In series [2] (setting [6]), the HLM came out at 5.54 mL/min/kg. In series [3], this compound had a pIC50 of 6.69 and a pKi of 6.75.
Compound `Cc1cc2[nH]cc(C(=O)OCC34CCN(CC3)CC4)c2cc1F` [Compound 72, Quinuclidin-4-ylmethyl 5-fluoro-6-methyl-1H-indole-3-carboxylate hydrochloride] had an I/Imax at Human α7 NAChR of 0.347. In the series “Human plasma stability” (Protocol No. 2, 37° C.), the “% Remaining @ 2 h” value is recorded as 70.78%. In addition, the RLM in series [1] (setting [5]) turned out to be 339.452 mL/min/kg. In series [2] (setting [6]), this compound returned an HLM of 3.032 mL/min/kg. In addition, in series [3], the pIC50 is 6.84 and the pKi was 6.90.
`COc1cc(Cl)cc2[nH]cc(C(=O)OCC34CCN(CC3)CC4)c12.Cl` [Compound 74, quinuclidin-4-ylmethyl 6-chloro-4-methoxy-1H-indole-3-carboxylate hydrochloride] registered an I/Imax on Human α7 NAChR of 0.157. Further, the “% Remaining @ 2 h” value in “Human plasma stability” (Protocol No. 2, 37° C.) is on record as 61.85%. The RLM in series [1] (setting [5]) turned out to be 342.736 mL/min/kg. Moreover, the HLM in series [2] (setting [6]) worked out at 9.6502 mL/min/kg. For the same compound, in series [3], the pIC50 is 6.74 and the pKi was 6.81.

Values taken from patent US9434724B2, “Quinuclidines for modulating alpha 7 activity” (priority 2014, dated 2016).
